# Tests used:
# 40 kD platelet protein = experiment: thrombin-induced phosphorylation of 40 kD platelet protein; type: cell-based, human; conditions: thrombin stimulation, FIG. 9
# Protocol: FIG. 9 depicts the inhibition of γ-thrombin-induced phosphorylation of 40 kD protein of human platelets by sphingosine and TMS. Human platelets (3×10^5 /μl) were prelabeled with ^32 p-phosphoric acid (0.2 mCi/ml) in Tyrode's buffer containing 22 mM trisodium citrate, 1 mg/ml glucose and 3.5 mg/ml bovine serum albumin (pH 6.5) for 75 minutes at 37° C. After centrifugation (600× g, 10 minutes), the platelets were resuspended in Tyrode's buffer (pH 7.2), aliquoted in plastic tubes and pre-incubated at 37° C. for 5 minutes with various concentrations of sphingosine and its derivatives (added as 50% ethanol solutions with a final ethanol concentration of 0.5%). Platelets then were stimulated with thrombin […]. The reactions were stopped after 30 seconds by the addition of 5× sample buffer, the samples were boiled and loaded onto 10% SDS-polyacrylamide gels. The proteins were separated electrophotectically. Lane 1-control without stimulation by thrombin; Lane 2-stimulation by 1 μU/ml of γ-thrombin; Lane 3-stimulated by thrombin but added with 1 μM TMS; Lane 4-stimulated by thrombin but added with 10 μM TMS; Lane 5-stimulated by thrombin but added with 20 μM TMS; Lane 6-stimulated by thrombin but added with 30 μM TMS; Lane 7-stimulated by thrombin but added with 20 μM sphingosine; Lane 8-stimulated by thrombin but included addition of 20 μM N,N-dimethylsphingosine.
# BL6 cells = experiment: BL6 lung metastatic deposits in mice; type: in vivo
# Source text: FIGS. 6A-C depict the effect of N,N,N-trimethylsphingosine on lung metastatic deposits after intravenous injection of BL6 cells into mice. Each graph represents the mean and standard deviation of results obtained in 8 animals. In FIG. 6A the open bars depict the total number of lung colony deposits; the stippled bars depict the number of lung colonies with a diameter of greater than 1 mm; and the solid bars depict the number of lung colonies with a diameter of less than 1 mm. Bars 1-3 depict the number of deposits observed 14 days after injection. Bars 4-6 depict the number of lung colony deposits in animals that received BL6 cells and 1 minute later received 0.2 mg of N,N,N-trimethylsphingosine (TMS). […]
# In FIG. 6B the number of lung colonies was determined 16 days after treatment, the treatment consisting of varying doses and routes of administration. […]
# In FIG. 6C the dose responsiveness of BL6 metastatic potential to TMS is presented. […] Sixteen days after treatment, the mice were sacrificed, lungs opened and the number of colonies in the lungs were counted under a dissecting microscope.
# The effectiveness of TMS in vivo is summarized in the graphs comprising FIG. 6. BL6 cells were injected into mice and metastatic deposits in the lung were assessed after various treatments including route and timing of administration.
# neutrophils = experiment: neutrophil superoxide production (cytochrome C reduction); type: cell-based, human
# Protocol: FIGS. 13A and 13B depict the effect of various reagents on neutrophil function. In FIG. 13A, the effect of TMS on O2 production was determined by monitoring the superoxide-mediated reduction of cytochrome C (Clifford, Meth. Enz., 105, 393, 1981) by 10^6 neutrophils/ml at OD550 and an extinction coefficient of 21000/M/cm in a Beckman DU-50 spectrophotometer. The cells were preincubated for 10 minutes at room temperature with the noted concentrations of TMS prior to stimulation with 1 μM PMA (time 0).
# Human neutrophils were obtained from normal male adults. Heparinized peripheral blood was mixed gently with an equal amount of 1% dextran solution in PBS in a 60 ml injection syringe. The mixture was allowed to sit vertically for 60 to 90 minutes at 37° C. The upper phase, which is rich in white blood cells, was mounted gently on the same volume of Ficoll-Paque (Pharmacia LKB, Uppsala, Sweden) in Falcon 2095 plastic test tubes (Becton Dickinson Labware, Lincoln Park, N.J.). Centrifugation at 450 g for 30 min at 4° C. brought the neutrophils to the bottom of the tubes. The upper phase and interface, which contains lymphocytes, were removed carefully by aspiration.
# Superoxide production by neutrophils was quantitated by monitoring superoxide-mediated reduction of cytochrome C (Clifford, supra, in which the reduction is manifest as an increase in absorbance at 550 nm at an extinction coefficient of 21000/M/cm). Measurements were carried out with a Beckman DU-50 spectrophotometer at 37° C. using ≈1×10^6 neutrophils per ml. The cells were allowed to equilibrate for 10 min with TMS, or other effectors, prior to addition of 1 μM of PMA.
# mouse CTLL-2 cells = experiment: CTLL-2 cell proliferation (thymidine incorporation); type: cell-based; conditions: FIG. 10
# Protocol: FIG. 10 depicts the effect of sphingosine derivatives on mouse T-cell line CTLL. Each point is the mean of three replicates. In the figure DMS represents N,N-dimethylsphingosine and TMS represents N,N,N-trimethylsphingosine.
# For example, mouse CTLL-2 cells (ATCC No. TIB 214), a T lymphocyte cell line, were plated at 1.5×10^4 cells per well and exposed to test substances. Cell proliferation was monitored by thymidine incorporation.
structure (smiles),measurement,setting,value
"CCCCCCCCCCCCC/C=C/[C@@H](O)[C@H](CO)[N+](C)(C)C [TMS, N,N,N-trimethylsphingosine]",inhibition of phosphorylation of the 40 kD platelet protein,40 kD platelet protein,inhibits phosphorylation of the 40 kD platelet protein
same,dose responsiveness of lung tumor colonization,"BL6 cells; FIG. 6B, 6C",distinct dose responsiveness
same,suppression of lung colonization and tumor development,"BL6 cells; irrespective of route or timing, FIG. 6",effective in suppressing lung colonization and tumor development
same,inhibition of oxyradical production,"neutrophils; 15 μM, FIG. 13B",inhibited immediately
same,inhibition of superoxide production,neutrophils; 20 μM,completely abolishes superoxide production
same,neutrophil superoxide production,neutrophils; Example 5,profound effect
same,inhibition of superoxide production,"neutrophils; dose-dependence, FIGS. 13A and 13B",inhibited by TMS in a dose-dependent manner
same,suppression of CTLL-2 cell growth,mouse CTLL-2 cells,effective in suppressing CTLL-2 cell growth
